In US20260345723A1, “Treatments for Opioid-Induced Respiratory Depression” (priority 2023, published 2026):

What was measured:
[1] = system: CCR2; conditions: selective CCR2 receptor antagonists, mice; cited from earlier work
[2] = system: CCR5; conditions: CCR5 antagonist, rats; cited from earlier work
[3] = system: CCR5; conditions: cited from earlier work
[4] = system: CXCR4; conditions: pretreatment, hypoxic neonatal rats; cited from earlier work
[5] = system: CCR2; conditions: rat, in vivo
[6] = system: CCR5; conditions: rat, in vivo
[7] = system: morphine-induced respiratory depression; conditions: rat, in vivo
[8] = system: IBA1 mRNA; conditions: rat, in vivo
[9] = system: CXCR4; conditions: rat, in vivo
[10] = system: GFAP mRNA; conditions: rat, in vivo
[11] = system: mu-opioid receptor (OPRM1); conditions: rat, in vivo
[12] = system: CXCR4; conditions: cited from earlier work
[13] = system: tolerance to morphine; conditions: in vivo; cited from earlier work
[14] = system: chemokine release; conditions: cited from earlier work
[15] = system: CCR2; conditions: pretreatment with CCR2 antagonist; cited from earlier work

COc1ccc(C2(O)CCC(N3CC[C@@H](NC(=O)CNC(=O)c4cccc(C(F)(F)F)c4)C3)CC2)cn1 (stereo partly shown) [INCB 3284]
methamphetamine-induced place conditioning [1]: reduce

maraviroc
locomotor-activating effects of cocaine [2]: reduce | rewarding efficacy of cocaine [2]: reduce | HIV entry into cells that express CCR5 [3]: inhibits the entry

dexamethasone
CXCR4 receptors [4]: downregulates CXCR4 receptors | neuroprotection [4]: induces neuroprotection

Cc1ccc2c(c1)C1(CCN(CCc3nc(-c4ccccc4)oc3C)CC1)OC(=O)N2 [RS504393]
methamphetamine-induced place conditioning [1]: reduce

CN1CC[C@]23c4c5ccc(O)c4O[C@H]2[C@@H](O)C=C[C@H]3[C@H]1C5 [morphine, reference compound]
CCR2 protein levels, NAC [5]: significantly reduced CCR2 protein levels | CCR2 protein levels, PFC [5]: significantly enhanced CCR2 protein levels | CCR2 protein levels, VTA [5]: significantly enhanced CCR2 protein levels | CCR5 protein levels, NAC [6]: significantly reduced CCR5 protein levels | CCR5 protein levels, VTA [6]: did not significantly change | SpO2 (oxygen saturation) [7]: under 90% | cumulative SpO2 [7]: significantly reduced SpO2 | cumulative respiratory rate [7]: significantly increased respiratory rate | microglial gene expression, VTA, NAC, PFC [8]: not altered | CXCR4 protein levels, VTA [9]: significantly enhanced CXCR4 protein levels | GFAP mRNA levels, NAC [10]: significantly enhanced | GFAP mRNA levels, VTA and PFC [10]: no significant changes were detected | OPRM1 protein levels, VTA [11]: significantly increased OPRM1 protein levels

c1cc(CN2CCCNCCNCCCNCC2)ccc1CN1CCCNCCNCCCNCC1 [AMD3100]
CXCR4 antagonism [12]: antagonist of CXCR4 | mobilization of hematopoietic stem cells [12]: mobilize hematopoietic stem cells

CN(C)c1ccc(O)c2c1C[C@H]1C[C@H]3[C@H](N(C)C)C(O)=C(C(N)=O)C(=O)[C@@]3(O)C(O)=C1C2=O [minocycline]
tolerance to morphine [13]: attenuates tolerance to morphine | chemokine release [14]: inhibits chemokine release

O=C1Nc2ccccc2C2(CCN(CCc3ccc(C(F)(F)F)cc3)CC2)O1 [RS-102895]
inflammation caused by CCL2 [15]: inhibited
